Results published in ChEMBL document CHEMBL2412996, “Increase of anti-HIV activity of C-peptide fusion inhibitors using a bivalent drug design approach” (Bioorg Med Chem Lett, 2013).
Square brackets hold non-standard residues; d marks the D form. Peptide text beside a SMILES is read from it. Ahx = NCCCCCC(=O)O

Assays:
Assay type in all cases: cell-based
[1] = Inhibition of HIV1 HXB2 gp160-mediated cell-cell fusion between viral envelope expressing human HL2/3 cells to human TZM-bl cells expressing CD4, tat, and rev by luciferase reporter gene assay; conditions: Human immunodeficiency virus 1, HXB2, TZM-bl
TZM-bl [2] = test: Inhibition of HIV1 HXB2 gp160-mediated cell-cell fusion between viral envelope expressing human HL2/3 cells to human TZM-bl cells expressing CD4, tat, and rev by luciferase reporter gene assay relative to C22; conditions: Human immunodeficiency virus 1
TZM-bl [3] = test: Inhibition of HIV1 HXB2 gp160-mediated cell-cell fusion between viral envelope expressing human HL2/3 cells to human TZM-bl cells expressing CD4, tat, and rev by luciferase reporter gene assay relative to SC22EK; conditions: Human immunodeficiency virus 1

| Compound | IC50 [1] | Ratio (TZM-bl [2]) | Ratio (TZM-bl [3]) |
| --- | --- | --- | --- |
| CC[C@H](C)[C@H](NC(=O)[C@H](CC(C)C)NC(=O)[C@H](CO)NC(=O)[C@H](Cc1cnc[nH]1)NC(=O)[C@@H](NC(=O)[C@H](CC(C)C)NC(=O)[C@H](CO)NC(=O)[C@@H](NC(=O)[C@H](Cc1ccc(O)cc1)NC(=O)[C@H](CC(N)=O)NC(=O)[C@H](CC(N)=O)NC(=O)[C@@H](NC(=O)[C@H](CCC(=O)O)NC(=O)[C@H](CCCNC(=N)N)NC(=O)[C@H](CC(=O)O)NC(=O)[C@H](Cc1c[nH]c2ccccc12)NC(=O)[C@H](CCC(=O)O)NC(=O)[C@H](CCSC)NC(=O)[C@H](Cc1c[nH]c2ccccc12)NC(=O)CCCCCNC(=O)[C@H](CS)NC(C)=O)[C@@H](C)CC)[C@@H](C)O)[C@@H](C)CC)C(=O)N[C@@H](CCC(=O)O)C(=O)N[C@@H](CCC(=O)O)C(=O)N[C@@H](CO)C(=O)O (Ac-C[Ahx]WMEWDREINNYTSLIHSLIEES-OH) | 561 nM | 2.21 |  |
| CC[C@H](C)[C@H](NC(=O)[C@H](CC(C)C)NC(=O)[C@H](CCC(=O)O)NC(=O)[C@H](CCC(=O)O)NC(=O)[C@@H](NC(=O)[C@H](CCCCN)NC(=O)[C@H](CCCCN)NC(=O)[C@@H](NC(=O)[C@H](Cc1ccc(O)cc1)NC(=O)[C@H](CCC(=O)O)NC(=O)[C@H](CCC(=O)O)NC(=O)[C@@H](NC(=O)[C@H](CCCCN)NC(=O)[C@H](CCCCN)NC(=O)[C@H](CC(=O)O)NC(=O)[C@H](Cc1c[nH]c2ccccc12)NC(=O)[C@H](CCC(=O)O)NC(=O)[C@H](CCC(=O)O)NC(=O)[C@H](Cc1c[nH]c2ccccc12)NC(=O)CCCCCNC(=O)[C@H](CS)NC(C)=O)[C@@H](C)CC)[C@@H](C)O)[C@@H](C)CC)C(=O)N[C@@H](CCCCN)C(=O)N[C@@H](CCCCN)C(=O)N[C@@H](CO)C(=O)O (Ac-C[Ahx]WEEWDKKIEEYTKKIEELIKKS-OH) | 38.6 nM |  | 8.97 |
